In patent publication EP0326331B1, “Substituted quinolines and cinnolines” (Dow AgroSciences LLC, priority 1988, dated 1989):

Columns and labels:
Format in all cases: in vivo
[1] = tested on: Venturia inaequalis (apple scab); assay: Test 1 greenhouse foliar spray screen, apple scab on apple seedling; details: Venturia inaequalis; Test 1, foliar spray on apple seedling; disease control rating at 400 ppm / 100 ppm; read-out: APPL SCAB
[2] = tested on: Erysiphe graminis tritici (powdery mildew); assay: Test 1 greenhouse foliar spray screen, powdery mildew on wheat; details: Blumeria graminis, foliar, Test 1, foliar spray on wheat; disease control rating at 400 ppm / 100 ppm; read-out: POWD MDEW
[3] = tested on: Cercospora beticola (leaf spot); assay: Test 1 greenhouse foliar spray screen, leaf spot on sugar beet; details: Cercospora beticola; Test 1, foliar spray on sugar beet; disease control rating at 400 ppm / 100 ppm
[4] = tested on: Pseudoperonospora cubensis (downy mildew); assay: Test 1 greenhouse foliar spray screen, downy mildew on squash
[5] = tested on: Septoria tritici (leaf blotch); assay: Test 1 greenhouse foliar spray screen, leaf blotch on wheat; details: Zymoseptoria tritici; Test 1, foliar spray on wheat; disease control rating at 400 ppm / 100 ppm; read-out: LEAF BLOT
corn rootworm = assay: Mite/insect screen, CRW; details: percent mortality, read-out: CRW RESULTS %
Procedure, shortened: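 Following dissolution in equal parts acetone and alcohol with 23 g/L and 13 g/L emulsifier blends and dilution with water, test solutions were scored for percent mortality at the end of standard exposures.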

[6] = tested on: melon aphids (Aphis gossypii Glover); assay: Mite/insect screen, MA; details: Aphis gossypii, foliar, percent mortality, foliar spray on squash, read-out: MA RESULTS %
Procedure, shortened: (§1)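 Foliar spray to runoff (10 psi), 1 h drying; aqueous dilutions from acetone/alcohol emulsifier stock. Mortality (%) after standard exposure.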

[7] = tested on: southern armyworm (Spodopetra eridania Cramer); assay: Mite/insect screen, SAW; details: Spodoptera eridania, foliar, percent mortality, foliar spray on squash, read-out: SAW RESULTS %
Procedure, shortened: as §1

cotton aphid = assay: Field trials against pest species; details: field trial, host cotton
Procedure: (§2) 4-[2-[4-(t-Butyl)phenyl]ethoxy]-8-fluoroquinoline (Example 221) was evaluated in a number of field trials. […]

greenhouse thrip = assay: Field trials against pest species; details: field trial, host azaleas
Procedure: as §2

mites = assay: Field trials against pest species; details: field trial, host apples
Procedure: as §2

Dawson-hop aphid = assay: Field trials against pest species; details: field trial, host hops
Procedure: as §2

twospotted spider mite = assay: Field trials against pest species; details: field trial, host broccoli
Procedure: as §2

bean aphid = assay: Field trials against pest species; details: field trial, host bean, faba broad
Procedure: as §2

European red mite = assay: Field trials against pest species; details: field trial, host apples
Procedure: as §2

grape thrip = assay: Field trials against pest species; details: field trial, host grape (European)
Procedure: as §2

white apple leafhopper = assay: Field trials against pest species; details: field trial, host apples
Procedure: as §2

apple aphid = assay: Field trials against pest species; details: field trial, host apples
Procedure: as §2

potato leaf hopper = assay: Field trials against pest species; details: field trial, host alfalfa (Lucerne)
Procedure: as §2

green cloverworm = assay: Field trials against pest species; details: field trial, host alfalfa (Lucerne)
Procedure: as §2

yellow hickory aphid = assay: Field trials against pest species; details: field trial, host pecan nut
Procedure: as §2

tarnished plant bug = assay: Field trials against pest species; details: field trial, host alfalfa (Lucerne)
Procedure: as §2

grape leafhopper = assay: Field trials against pest species; details: field trial, host grape (European)
Procedure: as §2

wheat aphid = assay: Field trials against pest species; details: field trial, host wheat
Procedure: as §2

thrip = assay: Field trials against pest species; details: field trial, host privet
Procedure: as §2

pea aphid = assay: Field trials against pest species; details: field trial
Procedure: as §2

green peach aphid = assay: Field trials against pest species; details: field trial
Procedure: as §2

rosy apple aphid = assay: Field trials against pest species; details: field trial, host apples
Procedure: as §2

apple rust mite = assay: Field trials against pest species; details: field trial, host apples
Procedure: as §2

[8] = tested on: Pyricularia oryzae (rice blast); assay: whole plant or invertebrate; details: Pyricularia oryzae, foliar, read-out: RICE BLAST, Test 1, foliar spray on rice; disease control rating at 400 ppm / 100 ppm
[9] = tested on: Twospotted spider mites (Tetranychus urticae Koch); assay: Mite/insect screen, SM
Procedure, shortened: as §1

[10] = tested on: Botrytis cinerea (gray mold); assay: Test 1 greenhouse foliar spray screen, gray mold on grape berries; details: Botrytis cinerea, foliar; Test 1, spray on grape berries; disease control rating at 400 ppm / 100 ppm
[11] = tested on: Puccinia recondita tritici (leaf rust); assay: Test 1 greenhouse foliar spray screen, leaf rust on wheat; details: Puccinia recondita, foliar, Test 1, foliar spray on wheat; disease control rating at 400 ppm / 100 ppm
Erysiphe sp. = assay: Field tests against plant pathogens; details: field test, crop sugar beet
Description: Selected compounds were field tested against a variety of plant pathogens. […]

[12] = summary statement in the description

CC(C)(C)c1ccc(CCOc2ccnc3c(F)cccc23)cc1 [Example 221, 4-[2-[4-(t-butyl)phenyl]ethoxy]-8-fluoroquinoline]
pest or weed control at 400 ppm [1]: 20 to 89%
pest or weed control at 400 ppm [2]: 20 to 89%
pest or weed control at 400 ppm [3]: 90 to 100%
pest or weed control at 400 ppm ([4]; Pseudoperonospora cubensis, foliar, Test 1, foliar spray on squash, disease control rating at 400 ppm / 100 ppm, read-out: DOWN MDEW): 90 to 100%
activity against downy mildew [4, 12]: particularly excellent activity
pest or weed control at 400 ppm [5]: 90 to 100%
mortality at 12 ppm (corn rootworm; CRW rate 12.00 ppm): 40%
mortality at 24 ppm (corn rootworm; CRW rate 24.00 ppm): 0%
mortality at 200 ppm ([6]; rate 200 ppm): 90%
mortality at 400 ppm ([6]; rate 400 ppm): 80%
mortality at 200 ppm ([7]; rate 200 ppm): 0%
mortality at 400 ppm ([7]; rate 400 ppm): 0%
pest species against which it showed activity (cotton aphid): cotton aphid
pest species against which it showed activity (greenhouse thrip): greenhouse thrip
pest species against which it showed activity (mites): mites
pest species against which it showed activity (Dawson-hop aphid): Dawson-hop aphid
pest species against which it showed activity (twospotted spider mite): twospotted spider mite
pest species against which it showed activity (bean aphid): bean aphid
pest species against which it showed activity (European red mite): European red mite
pest species against which it showed activity (grape thrip): grape thrip
pest species against which it showed activity (white apple leafhopper): white apple leafhopper
pest species against which it showed activity (apple aphid): apple aphid
pest species against which it showed activity (potato leaf hopper): potato leaf hopper
pest species against which it showed activity (green cloverworm): green cloverworm
pest species against which it showed activity (yellow hickory aphid): yellow hickory aphid
pest species against which it showed activity (tarnished plant bug): tarnished plant bug
pest species against which it showed activity (grape leafhopper): grape leafhopper
pest species against which it showed activity (wheat aphid): wheat aphid
pest species against which it showed activity (thrip): thrip
pest species against which it showed activity (pea aphid; host alfalfa (Lucerne)): pea aphid
pest species against which it showed activity (pea aphid; host pea, garden (English)): pea aphid
pest species against which it showed activity (green peach aphid; host apples): green peach aphid
pest species against which it showed activity (green peach aphid; host sugar beet): green peach aphid
pest species against which it showed activity (rosy apple aphid): rosy apple aphid
pest species against which it showed activity (apple rust mite): apple rust mite
pest or weed control at 400 ppm [8]: 0 to 19%
mortality at 200 ppm ([9]; Tetranychus urticae, foliar, percent mortality, rate 200 ppm, foliar spray on squash, read-out: SM RESULTS %): 90%
mortality at 400 ppm ([9]; Tetranychus urticae, foliar, percent mortality, rate 400 ppm, foliar spray on squash, read-out: SM RESULTS %): 90%
activity as miticides [9, 12]: particularly excellent activity
pest or weed control at 400 ppm [10]: 0 to 19%
pest or weed control at 400 ppm [11]: 90 to 100%
pathogens against which compounds of the invention showed activity (Erysiphe sp.): Erysiphe sp.
